# In US10639287B2, “Compounds for the treatment of mitochondrial diseases” (UNIVERSITE PARIS-SUD, priority 2014, dated 2020):
# What was measured:
# [1] = system: Saccharomyces cerevisiae mip1^G651S yeast strain; test: Inhibition of growth (MIC) / maximum tolerated concentration in yeast culture (DO600 after 24 h); format: cell-based; conditions: 1-512 μM tested
# Protocol: (§1) From o/n pre-culture in selective medium (SC-URA, 2% ethanol (v/v)), 50 mL of rich YPD medium (1% Yeast Extract, 0.5% Bacto Peptone, 2% Glucose) were seeded at a DO600 of 0.05/mL. The 50 mL of culture were distributed in a series of ten tubes on the basis of 2 mL of culture/tube, with 4 mL of culture being placed in the last tube. […] From this tube (tube 1), 2 mL of culture were placed into tube 2. Tube 2 contained 4 ml of culture and clofilium tosylate at a concentration of 256 μM. 2 mL of tube 2 were added to tube 3, and so on. Each tube contained the drug at a concentration equal to half that of the previous tube. Two controls were provided—without clofilium tosylate and with DMSO (the volume being the same as that used to dilute the clofilium tosylate). The cultures were incubated at 28° C. with stirring for 24 hours, and the optical density (DO600) was measured.
# [2] = Maximum solubility in yeast culture; format: physicochemical; conditions: 28 °C; in YPD yeast culture; read-out: maximum concentration (maximum solubility)
# Protocol: as §1
# [3] = system: mutated mip1 yeast strains; test: Production of small colonies in mutated mip1 yeast strains; format: cell-based, Saccharomyces cerevisiae
# Protocol: The rate of small cells in a population represents the cells not breathing due to rearrangements of the mtDNA and/or having lost their mtDNA.
# From a pre-culture in selective medium (SC-TRP, 2% ethanol (v/v)) of the mutated mip1 strain, 2.10^5 cells/mL were seeded in 2 mL of rich YPD medium (1% Yeast Extract, 0.5% Bacto Peptone, 2% Glucose) in the presence of 32 μM clofilium tosylate or DMSO. The cells were then incubated at 28° C. for two cycles of 24 hours. The cells were then diluted to have about 200 to 250 cells per dish and spread on differential synthetic medium (SC-TRP, 0.3% glucose, 2% ethanol). The number of small colonies was calculated after 6 days of incubation at 28° C. (Baruffini, E., Lodi, T., Dallabona, C., Puglisi, A., Zeviani, M. and Ferrero, I. (2006) Genetic and Chemical rescue of the Saccharomyces cerevisiae phenotype induced by mitochondrial DNA polymerase mutations associated with progressive external ophthalmoplegia in humans. Hum. Mol. Genet., 15, 2846-2855).
# The effect of the clofilium tosylate on the production of small colonies was measured in 8 recessive mip1 mutants:
# an in 3 dominant mip1 mutants: • Y757C (mutated domain: polymerase) • K749R (mutated domain: polymerase) • E698G (mutated domain: polymerase)
# [4] = system: yeast cells expressing the wild-type MIP1 gene or the mutated mip1^G651S gene; test: Respiration (O2 consumption) of yeast cells, HANSATECH electrode; format: cell-based, Saccharomyces cerevisiae; conditions: 32 μM vs DMSO
# Protocol: The respiration rate is the amount of oxygen consumed per unit of time and biological material. It reflects the activity of the oxidative metabolism of the cells.
# Oxygen consumption was measured on whole cells using a HANSATECH electrode. The yeast cells expressing the wild-type MIP1 gene or the mutated mip1^G651S gene were cultured for 7-8 generations in a YPE medium (1% Yeast Extract, 0.5% Bacto Peptone, 2% Ethanol) supplemented with DMSO or 32 μM clofilium tosylate at 28° C. with stirring. A volume corresponding to a total of 60 units of DO600 of each culture was centrifuged for 5 min at 3000 g. The pellet was resuspended in YPE in order to have 6.10^5 cells/μl. 50 μL, that is to say 3.10^7 cells, were introduced into the measuring chamber of the HANSATECH electrode, which was maintained at 28° C. The O2 consumption was observed and recorded in real time. The O2 consumption rate was calculated from the linear part of the O2 consumption curve.
# [5] = system: haploinsufficient TB2143 nematodes (polg-1(ok1458Δ/+)); test: Test for resistance to ethidium bromide of haploinsufficient polg-1 nematodes; format: in vivo, Caenorhabditis elegans; conditions: 50 μM, 30 μg/mL ethidium bromide, 4 days
# Source text: Ethidium bromide is an intercalating agent of DNA, especially of mtDNA, rich in adenine and thymidine. At high concentrations it halts the development of the worms at stage L3 (Addo, M. G., Cossard, R., Pichard, D., Obiri-Danso, K., Rötig, A. and Delahodde, A. (2010) Caenorhabditis elegans, a pluricellular model organism to screen new genes involved in mitochondrial genome maintenance. BBA-Mol. Basis Dis., 1802, 765-773. The haploinsufficient TB2143 nematodes (polg-1(ok1458Δ/+)) are highly sensitive to low doses of ethidium bromide (30 μg/mL) with 90% of the larvae halted at stage L3.
# Around thirty wild-type larvae or larvae mutated in polg-1 (TB2143 line (polg-1(ok1458Δ/+))) synchronised at stage L1 were deposited on NGM dishes containing 30 μg mL ethidium bromide and either DMSO or 50 μM clofilium tosylate (experiment performed in triplicate). Larval development was examined after 4 days of treatment.
smiles,measurement,setting,value
CCCCCCC[N+](CC)(CC)CCCCc1ccc(Cl)cc1.Cc1ccc(S(=O)(=O)[O-])cc1 [clofilium tosylate],concentration chosen for the study in S. cerevisiae (determination of the maximum concentration tolerated),[1],32 µM
same,solubility,[2],512 µM
same,production of small colonies of the mutant mip1^G651S yeast strain,[3]; 32 μM vs DMSO,reduced the production of small colonies
same,production of cells not breathing (small colonies) in recessive and dominant mip1 mutants,"[3]; 32 μM, irrespective of mutated MIP1 domain, except mutations producing more than 90% of small colonies",reduced the production of cells not breathing
same,respiration of yeast cells (O2 consumption),[4],breathed better
same,resistance to ethidium bromide,[5],increased resistance
